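Step 1: Grow cells in 96-well plates. Step 2: Expose to compound for 48 hours at 5 concentrations. Step 3: Interpolate endpoints linearly; if unreached, use highest concentration. TGI marks complete inhibition of growth.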

The record followed here is PubChem BioAssay (NCI).

One assay relates to RPMI-8226 leukemia. The assay can be described thus: inhibition of tumour cell growth, NCI panel, 48 h.
On to `CC(C)(C)OC(=O)NC(C)(C)C(=O)NCCC(=O)O`, for which the TGI is more than 100 µM.
In the case of `CCOC(=O)CCC(NC(=O)c1ccc(OCc2nc3cc(C(F)(F)F)ccc3nc2-c2ccccc2)cc1)C(=O)OCC` (stereo unspecified), the TGI was more than 100 µM.
`O=C(O)c1ccc(NC(c2ccccc2)c2ccc3cccnc3c2O)cc1` (stereo unspecified) yielded a TGI of 28 µM.
For `CCOC(=O)c1sc2nc(SC)nc3c2c1N=CN3c1ccc(Br)cc1`, the TGI was more than 100 µM.
`CC[C@@H]1CC[C@@H]2[C@H](CC[C@]3(C)[C@@H](O)CC[C@@H]23)[C@H]1C(=O)O` yielded a TGI of more than 100 µM.
As to `CCOC(=O)c1c(NC(=O)c2ccccc2)sc2c1CCCC2`, the TGI is more than 100 µM.
The same measure, in the same setting: with `Nc1nc(Cl)cc(NCC2(CO)CC(CCc3ccccc3)C2)n1` (stereo unspecified) the figure was more than 100 µM.
For `O=c1c2ccccc2[nH]c(=S)n1-c1ccc(N=Nc2cccc3c(O)cccc23)cc1`, the TGI is more than 100 µM.
Molecule `N#C/C(=C\NC(=S)Nc1ccc(S(=O)(=O)Nc2ccccn2)cc1)C(N)=O` displayed a TGI of more than 100 µM.
Molecule `CC(=O)NC1C(OCc2ccccc2)OC(CO)C(O)C1OCC(=O)N[C@@H](C)C(=O)N[C@H](CCC(=O)NCCNCCNc1c2ccccc2nc2cccc([N+](=O)[O-])c12)C(N)=O` (stereo partly specified) showed a TGI of 73.3 µM.
On to `c1cc2nnc1SCCSCCSc1ccc(nn1)SCCSCCS2`, for which the TGI was more than 100 µM.
The molecule `O=C(Cc1nc2ccc(C(=O)c3ccccc3)cc2[nH]c1=O)C(=O)Nc1ccc(Br)cc1` returned a TGI of more than 100 µM.
`c1sc(NC2=NCCO2)c2c1CCCC2` came in with a TGI of more than 100 µM.
`CC(=O)C(CN1CCCCC1)C(c1ccccc1)c1c(O)c2ccccc2oc1=O` (stereo unspecified) registered a TGI of more than 100 µM.
Regarding `O=c1oc2ccccc2c(O)c1C(c1cc(OCc2ccccc2)cc(OCc2ccccc2)c1)c1c(O)c2ccccc2oc1=O`, the TGI is 6.08 µM.
For the molecule `Cc1cc(-c2nc3ccccc3s2)ccc1NS(=O)(=O)O`, the TGI was more than 10.5 µM.
Still for that read-out and setting: with `Cc1cc2c(c(C(=O)NCCC(=O)O)c1)Oc1c(cc(C)cc1C(=O)NCCC(=O)O)S2` the figure was more than 100 µM.
For `c1cc(-c2cnc(-c3ccc4c(c3)CCCO4)o2)ccn1`, the TGI worked out at 23.6 µM.

A further assay relates to RXF 393 renal. The experiment in a line: inhibition of tumour cell growth, NCI panel, 48 h.
`O=C1CC2C=CC(O)C(C1)C2` (stereo unspecified) gave a TGI of 12.2 µM.
`COC(=O)C1(Cc2ccccc2)Cc2cc3c(cc2C1=O)CCC3` (stereo unspecified) showed a TGI of more than 100 µM.
`N#CC1=C(N)OC2=C(CSc3ccccc32)C1c1ccc(Br)cc1` (stereo unspecified) had a TGI of 16.3 µM.
Consider `Cc1sc2nc3n(c(=O)c2c1C)N=CN(c1ccccc1)C3`, for which the TGI is more than 100 µM.
`COc1ccc(N2C(=O)C3c4[nH]c5ccc([N+](=O)[O-])cc5c4C4CCC(C(C)(C)C)CC4C3C2=O)cc1` (stereo unspecified) showed a TGI of 9.34 µM.
In the case of `COC(=O)C1=C(C(=O)OC)C2OC1C1C2C2(C)C(C)=C(C)C1(C)S2=O` (stereo unspecified), the TGI came to 10.6 µM.
In the case of `CC(C)(C)OC(=O)NC(C)(C)C(=O)NCCC(=O)O`, the TGI is more than 100 µM.
As to `CCOC(=O)CCC(NC(=O)c1ccc(OCc2nc3cc(C(F)(F)F)ccc3nc2-c2ccccc2)cc1)C(=O)OCC` (stereo unspecified), the TGI is more than 100 µM.
`O=C(O)c1ccc(NC(c2ccccc2)c2ccc3cccnc3c2O)cc1` (stereo unspecified): the TGI was determined as 28.8 µM.
The same measure, in the same setting: with `CCOC(=O)c1sc2nc(SC)nc3c2c1N=CN3c1ccc(Br)cc1` the figure was more than 100 µM; with `CC[C@@H]1CC[C@@H]2[C@H](CC[C@]3(C)[C@@H](O)CC[C@@H]23)[C@H]1C(=O)O`, more than 100 µM; with `CCOC(=O)c1c(NC(=O)c2ccccc2)sc2c1CCCC2`, more than 100 µM.
Still for that read-out and setting: with `Nc1nc(Cl)cc(NCC2(CO)CC(CCc3ccccc3)C2)n1` (stereo unspecified) the figure was more than 100 µM; with `O=c1c2ccccc2[nH]c(=S)n1-c1ccc(N=Nc2cccc3c(O)cccc23)cc1`, more than 100 µM.
`N#C/C(=C\NC(=S)Nc1ccc(S(=O)(=O)Nc2ccccn2)cc1)C(N)=O` showed a TGI of more than 100 µM.
Same read-out and setting: with `CC(=O)NC1C(OCc2ccccc2)OC(CO)C(O)C1OCC(=O)N[C@@H](C)C(=O)N[C@H](CCC(=O)NCCNCCNc1c2ccccc2nc2cccc([N+](=O)[O-])c12)C(N)=O` (stereo partly specified) the figure was 64 µM.
Same read-out and setting: with `c1cc2nnc1SCCSCCSc1ccc(nn1)SCCSCCS2` the figure was more than 100 µM; with `O=C(Cc1nc2ccc(C(=O)c3ccccc3)cc2[nH]c1=O)C(=O)Nc1ccc(Br)cc1`, more than 100 µM; with `c1sc(NC2=NCCO2)c2c1CCCC2`, more than 100 µM.
`CC(=O)C(CN1CCCCC1)C(c1ccccc1)c1c(O)c2ccccc2oc1=O` (stereo unspecified) had a TGI of more than 100 µM.
The molecule `O=c1oc2ccccc2c(O)c1C(c1cc(OCc2ccccc2)cc(OCc2ccccc2)c1)c1c(O)c2ccccc2oc1=O` gave a TGI of more than 52 µM.
In turn, `Cc1cc(-c2nc3ccccc3s2)ccc1NS(=O)(=O)O` displayed a TGI of more than 100 µM.
`Cc1cc2c(c(C(=O)NCCC(=O)O)c1)Oc1c(cc(C)cc1C(=O)NCCC(=O)O)S2`: the TGI was more than 100 µM.
Molecule `c1cc(-c2cnc(-c3ccc4c(c3)CCCO4)o2)ccn1` had a TGI of 43.7 µM.

Another assay has as its system UACC-257 melanoma. The experiment in a line: inhibition of tumour cell growth, NCI panel, 48 h.
Take `O=C1CC2C=CC(O)C(C1)C2` (stereo unspecified): the TGI was more than 100 µM.
`COC(=O)C1(Cc2ccccc2)Cc2cc3c(cc2C1=O)CCC3` (stereo unspecified): the TGI was more than 100 µM.
`N#CC1=C(N)OC2=C(CSc3ccccc32)C1c1ccc(Br)cc1` (stereo unspecified) returned a TGI of 30.2 µM.
The same measure, in the same setting: with `Cc1sc2nc3n(c(=O)c2c1C)N=CN(c1ccccc1)C3` the figure was more than 100 µM; with `COc1ccc(N2C(=O)C3c4[nH]c5ccc([N+](=O)[O-])cc5c4C4CCC(C(C)(C)C)CC4C3C2=O)cc1` (stereo unspecified), more than 100 µM; with `COC(=O)C1=C(C(=O)OC)C2OC1C1C2C2(C)C(C)=C(C)C1(C)S2=O` (stereo unspecified), 29.6 µM.
The molecule `CC(C)(C)OC(=O)NC(C)(C)C(=O)NCCC(=O)O` yielded a TGI of more than 100 µM.
The same measure, in the same setting: with `CCOC(=O)CCC(NC(=O)c1ccc(OCc2nc3cc(C(F)(F)F)ccc3nc2-c2ccccc2)cc1)C(=O)OCC` (stereo unspecified) the figure was more than 100 µM.
In turn, `O=C(O)c1ccc(NC(c2ccccc2)c2ccc3cccnc3c2O)cc1` (stereo unspecified) came in with a TGI of 46.2 µM.
Molecule `CCOC(=O)c1sc2nc(SC)nc3c2c1N=CN3c1ccc(Br)cc1` registered a TGI of more than 100 µM.
Still for that read-out and setting: with `CC[C@@H]1CC[C@@H]2[C@H](CC[C@]3(C)[C@@H](O)CC[C@@H]23)[C@H]1C(=O)O` the figure was more than 100 µM; with `CCOC(=O)c1c(NC(=O)c2ccccc2)sc2c1CCCC2`, more than 100 µM.
Same read-out and setting: with `Nc1nc(Cl)cc(NCC2(CO)CC(CCc3ccccc3)C2)n1` (stereo unspecified) the figure was more than 100 µM; with `O=c1c2ccccc2[nH]c(=S)n1-c1ccc(N=Nc2cccc3c(O)cccc23)cc1`, more than 100 µM; with `N#C/C(=C\NC(=S)Nc1ccc(S(=O)(=O)Nc2ccccn2)cc1)C(N)=O`, more than 100 µM.
As for `CC(=O)NC1C(OCc2ccccc2)OC(CO)C(O)C1OCC(=O)N[C@@H](C)C(=O)N[C@H](CCC(=O)NCCNCCNc1c2ccccc2nc2cccc([N+](=O)[O-])c12)C(N)=O` (stereo partly specified), the TGI worked out at 43 µM.
Molecule `c1cc2nnc1SCCSCCSc1ccc(nn1)SCCSCCS2` registered a TGI of more than 100 µM.
Molecule `O=C(Cc1nc2ccc(C(=O)c3ccccc3)cc2[nH]c1=O)C(=O)Nc1ccc(Br)cc1` returned a TGI of more than 100 µM.
Same read-out and setting: with `c1sc(NC2=NCCO2)c2c1CCCC2` the figure was more than 100 µM; with `CC(=O)C(CN1CCCCC1)C(c1ccccc1)c1c(O)c2ccccc2oc1=O` (stereo unspecified), more than 100 µM; with `O=c1oc2ccccc2c(O)c1C(c1cc(OCc2ccccc2)cc(OCc2ccccc2)c1)c1c(O)c2ccccc2oc1=O`, 38.2 µM.
Still for that read-out and setting: with `Cc1cc(-c2nc3ccccc3s2)ccc1NS(=O)(=O)O` the figure was more than 100 µM.
The same measure, in the same setting: with `Cc1cc2c(c(C(=O)NCCC(=O)O)c1)Oc1c(cc(C)cc1C(=O)NCCC(=O)O)S2` the figure was more than 100 µM.
In the case of `c1cc(-c2cnc(-c3ccc4c(c3)CCCO4)o2)ccn1`, the TGI is 28.8 µM.
